Data: the supplement of paper PMC10307832

Key:
Test in all cases: relative viability (nuclei count vs DMSO), 5 days (fraction); higher = more cells survive
[1] = compound: C1/C(=C\C2=CC=CS2)/C(=O)/C(=C/C3=CC=CS3)/C1 + C[C@]1(O)C[C@@H](c2nc(-c3ccc4ccc(-c5ccccc5)nc4c3)c3c(N)nccn32)C1 [Linsitinib] (partner 1 µM)
Method in brief: (§1)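 After 5 days of treatment, lung cancer cells in 1536-well plates were fixed and stained in a single step (final 0.05% Triton X-100, 1% formaldehyde, 1 ug/ml Hoechst) and their nuclei counted on 4× images. Treatment had been applied by pin tool the day after seeding as one drug alone or as a fixed anchor-drug dose with five library-drug doses (not always all listed) in √10 steps. Relative viability is the nuclei count of treated wells divided by that of vehicle wells, and values are medians of duplicate plates.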

TPCA-1 + Decitabine = compound: C1=CC(=CC=C1C2=CC(=C(S2)NC(=O)N)C(=O)N)F [TPCA-1] + Nc1ncn([C@H]2C[C@H](O)[C@@H](CO)O2)c(=O)n1 [Decitabine] (partner 2 µM)
Method in brief: as §1

TPCA-1 + Foretinib = compound: C1=CC(=CC=C1C2=CC(=C(S2)NC(=O)N)C(=O)N)F [TPCA-1] + COc1cc2c(Oc3ccc(NC(=O)C4(C(=O)Nc5ccc(F)cc5)CC4)cc3F)ccnc2cc1OCCCN1CCOCC1 [Foretinib] (partner 0.25 µM)
Method in brief: as §1

Lestaurtinib + Alpelisib = compound: C[C@]12O[C@H](C[C@]1(O)CO)n1c3ccccc3c3c4c(c5c6ccccc6n2c5c31)CNC4=O [Lestaurtinib] + Cc1nc(NC(=O)N2CCC[C@H]2C(N)=O)sc1-c1ccnc(C(C)(C)C(F)(F)F)c1 [Alpelisib] (partner 2 µM)
Method in brief: as §1

Row | Cell Line | relative viability ([1]; first compound 0.2 µM) | relative viability ([1]; first compound 0.6325 µM) | relative viability ([1]; first compound 2 µM) | relative viability ([1]; first compound 6.325 µM) | relative viability ([1]; first compound 20 µM) | relative viability (TPCA-1 + Decitabine; first compound 0.04 µM) | relative viability (TPCA-1 + Decitabine; first compound 0.1265 µM) | relative viability (TPCA-1 + Decitabine; first compound 0.4 µM) | relative viability (TPCA-1 + Decitabine; first compound 1.265 µM) | relative viability (TPCA-1 + Decitabine; first compound 4 µM) | relative viability (TPCA-1 + Foretinib; first compound 0.04 µM) | relative viability (TPCA-1 + Foretinib; first compound 0.1265 µM) | relative viability (TPCA-1 + Foretinib; first compound 0.4 µM) | relative viability (TPCA-1 + Foretinib; first compound 1.265 µM) | relative viability (TPCA-1 + Foretinib; first compound 4 µM) | relative viability (Lestaurtinib + Alpelisib; first compound 0.005 µM) | relative viability (Lestaurtinib + Alpelisib; first compound 0.01581 µM) | relative viability (Lestaurtinib + Alpelisib; first compound 0.05 µM) | relative viability (Lestaurtinib + Alpelisib; first compound 0.1581 µM) | relative viability (Lestaurtinib + Alpelisib; first compound 0.5 µM)
1 | LC-2-ad | 0.832 | 0.838 | 0.875 | 0.69 | 0.847 | 0.773 | 0.678 | 0.741 | 0.854 | 0.776 | 1.06 | 0.88 | 0.818 | 0.845 | 0.552 | 0.961 | 0.829 | 0.354 | 0.227 | 0.139
2 | SK-LU-1 | 1.04 | 1.08 | 1.16 | 0.984 | 1.24 | 0.72 | 0.563 | 0.627 | 0.493 | 0.372 | 0.806 | 0.736 | 0.876 | 0.617 | 0.377 | 0.652 | 0.613 | 0.436 | 0.536 | 0.258
3 | EKVX | 1.1 | 1.05 | 0.974 | 0.776 | 1 | 0.366 |  | 0.383 | 0.316 | 0.345 | 0.627 | 0.596 | 0.895 | 0.624 | 0.148 | 0.892 | 1.03 | 0.938 | 0.743 | 0.519
4 | HCC-827 | 1.05 | 0.953 | 0.923 | 0.929 | 0.903 | 0.364 | 0.326 | 0.317 | 0.31 | 0.31 | 1.14 | 1.03 | 1.06 | 0.873 | 0.443 | 0.948 | 0.905 | 0.862 | 0.585 | 0.311
5 | NCI-H650 | 0.96 | 0.86 | 0.896 | 0.903 | 0.803 | 0.347 | 0.359 | 0.338 | 0.331 | 0.3 | 1.01 | 0.947 | 1.03 | 0.729 | 0.858 | 1.24 | 1.04 | 0.748 | 0.49 | 0.429
6 | EPLC-272H | 1.29 | 1.07 | 1.22 | 1.19 | 1.03 | 0.458 | 0.318 | 0.41 | 0.372 | 0.382 | 0.747 | 0.643 | 0.815 | 0.456 | 0.309 | 0.896 | 0.917 | 0.575 | 0.522 | 0.556
7 | A-427 | 1.14 | 1.12 | 1.11 | 1.06 | 1.15 | 0.62 | 0.535 | 0.591 | 0.564 | 0.504 | 1.01 | 1.05 | 1.05 | 0.921 | 0.695 | 1.14 | 1.16 | 0.952 | 0.571 | 0.4
8 | NCI-H647 | 1.27 | 1.36 | 1.03 | 0.969 | 1.17 | 0.475 | 0.433 | 0.385 | 0.4 | 0.346 | 1.2 | 1.14 | 1.11 | 1.16 | 0.782 | 0.972 | 0.87 | 0.267 | 0.231 | 0.14
9 | NCI-H1975 | 1.02 | 0.947 | 0.957 | 0.808 | 0.9 | 0.393 | 0.343 | 0.403 | 0.387 | 0.188 | 0.949 | 0.919 | 0.995 | 0.97 | 0.532 | 0.658 | 0.644 | 0.372 | 0.347 | 0.212
10 | NCI-H358 | 0.887 | 0.757 | 0.821 | 0.644 | 0.809 | 0.224 | 0.215 | 0.217 | 0.214 | 0.153 | 0.811 | 0.729 | 0.845 | 0.517 | 0.227 | 0.656 | 0.601 | 0.343 | 0.266 | 0.202
11 | PC-3 [JPC-3] | 1.1 | 0.956 | 0.949 | 0.891 | 0.949 | 0.862 | 0.916 | 0.838 | 0.813 | 0.818 | 1.03 | 1.08 | 0.968 | 0.984 | 1.02 | 1.03 | 1.1 | 0.985 | 0.913 | 0.65
12 | NCI-H596 | 1.15 | 1.04 | 1.02 | 1.01 | 1.04 | 1.02 | 0.997 | 1.07 | 1.1 | 1.07 | 0.953 | 0.811 | 0.855 | 0.98 | 0.937 | 0.409 | 0.484 | 0.464 | 0.624 | 0.432
13 | RERF-LC-KJ | 0.903 | 0.922 | 0.801 | 0.812 | 0.794 | 0.715 | 0.598 | 0.656 | 0.612 | 0.548 | 0.904 | 0.997 | 0.883 | 0.836 | 0.774 | 0.888 | 0.689 | 0.591 | 0.535 | 0.445
14 | NCI-H322M | 0.995 | 0.909 | 1.11 | 0.81 | 0.845 | 0.729 | 0.638 | 0.74 | 0.682 | 0.486 | 1.2 | 0.973 | 1.01 | 0.998 | 0.633 | 0.853 | 0.789 | 0.508 | 0.325 | 0.405
15 | COR-L 105 | 0.976 | 0.905 | 0.939 | 0.766 | 0.878 | 0.711 | 0.622 | 0.735 | 0.612 | 0.537 | 1.01 | 1.1 | 1.23 | 1.2 | 0.983 | 1.07 | 0.926 | 0.773 | 0.583 | 0.248
16 | NCI-H1993 | 0.683 | 0.694 | 0.672 | 0.679 | 0.792 | 0.604 | 0.541 | 0.541 | 0.584 | 0.508 | 0.798 | 0.644 | 0.75 | 0.663 | 0.676 | 0.788 | 0.677 | 0.691 | 0.591 | 0.583
